According to BigSolDB 2.1:

CC(=O)OCC(=O)[C@@]12N=C(C)O[C@@H]1C[C@H]1[C@@H]3CCC4=CC(=O)C=C[C@]4(C)[C@H]3[C@@H](O)C[C@@]12C
solubility (mole fraction)
Settings | in acetone | in ethanol | in ethyl acetate | in isopropanol
293.15 K | 0.00618 | 0.00167 | 0.00331 | 0.00127
298.15 K | 0.00674 | 0.002 | 0.00361 | 0.00161
303.15 K | 0.00735 | 0.00236 | 0.00393 | 0.00202
308.15 K | 0.00797 | 0.00279 | 0.00426 | 0.00249
313.15 K | 0.00861 | 0.00334 | 0.00465 | 0.00305
318.15 K | 0.00946 | 0.00397 | 0.0051 | 0.0038
323.15 K | 0.0104 | 0.00477 | 0.00559 | 0.00456
328.15 K | – | 0.00566 | 0.0061 | 0.00566
333.15 K | – | 0.00663 | 0.00668 | 0.00683
338.15 K | – | 0.00795 | 0.00737 | 0.00813
343.15 K | – | 0.00957 | 0.00805 | 0.00973
348.15 K | – | – | – | 0.0121
